Measured values: patent US4074049A, “Antithrombotic 1,3,4-thiadiazole” (The Dow Chemical Company, priority 1976, dated 1978)
Read-outs that look alike come from different tables or passages of the source. Each block holds one compound with its values, some of them ahead of it.

Assays:
[1] = tested on: ADP induced platelet aggregation; experiment: In vivo platelet aggregation measurement, filter occlusion technique (Broersma et al.); set-up: species or system beagle dogs; conditions: 20 mg/kg, intravenous, after 4 hours
Method: Measurement of platelet aggregation in vivo was carried out using the technique described by Broersma, et al., Thomb. diath. Haemorrhag. 29, 201 (1973). Such determinations are based upon the measurement of the blood pressure proximal to a filter with 53 micron openings through which arterial blood flows. Platelet aggregation partially obstructs the filter with time causing a change in the pressure which is proportional to the degree of platelet aggregation (thrombosis).
Fasted male beagle dogs were anesthetized with sodium pentobarbital (35 mg/kg), heparinized (16.5 μ/kg, i.v.) and tested for platelet function using aggregometry. Compounds were administered intravenously in solutions having the pH adjusted to 7.4. The solution was infused at a rate of 15.3 ml/min to total volume of 5 ml/kg of body weight. Thrombus formation was observed using the filter occlusion technique outlined above. Platelet count, hematocrit, blood pressure, and heart rate were also measured.

[2] = tested on: ADP-induced platelet aggregation; experiment: In vitro inhibition of ADP-induced platelet aggregation (Born technique, optical density, platelet rich plasma); format: cell-based, rat
Method: Rat blood was collected into 3.0 percent trisodium citrate solution (1:10) by cardiac puncture undeer methoxyflurane anesthesia. The blood was centrifuged at 120 g for 10 minutes at room temperature and the supernatant platelet rich plasma was removed and diluted with lactated Ringer's solution containing the […] aggregation inhibiting agent (1.0:1.5). Samples of 1.0 ml were pipetted into plastic test tubes and incubated for three minutes. Plastic equipment was used for all procedures. The concentration of the thiadiazole compound in micromoles inhibiting ADP aggregation by 50 percent (IC50) was determined using changes in optical density as a indicium of platelet aggregation.

tobacco black shank = experiment: Control of tobacco black shank, soil drench; format: in vivo
[3] = tested on: ADP-induced emboli / platelet aggregation; experiment: Protection of mice from ADP challenge (inclined screen test); format: in vivo; conditions: 60 mg/kg i.p.; ten mice; ADP i.v. one hour after compound
Method: Emboli formed in the vascular system of mice in response to the administration of ADP cause a stroke-like response that prevents mice from staying on an inclined screen. To illustrate the platelet aggregation inhibition effect of the 1,3,4-thiadiazoles, ten mice were dosed by intraperitoneal injection with 60 mgs per kilogram of body weight of the compound 2,5-bis(2-(diethylamino)ethylthio)-1,3,4-thiadiazole di-p-toluenesulfonic acid salt (Example 3). One hour after compound administration, the mice were challenged with ADP (0.05 M mole/kg) by injection via the tail vein and placed on an inclined screen. Unprotected control mice not injected with thiadiazole were unable to maintain their position on the screen when given a similar injection of ADP.

Structure (SMILES): C1CN(CCSc2nnc(SCCN3CCOCC3)s2)CCO1 [2,5-bis-(2-(4-morpholinyl)ethylthio)-1,3,4-thiadiazole]
reduction of ADP induced platelet aggregation in the dog [1]: 36%

Structure (SMILES): CC(=O)Oc1ccccc1C(=O)O [Aspirin, reference compound]
IC50 ([2]; Rattus norvegicus, Platelet, read-out: IC50 ADPmax): 12.8 µM
IC50 ([2]; Rattus norvegicus, Platelet, read-out: IC50 ADPslope): 18.1 µM

IC50 ([2]; inhibits maximum ADP-induced platelet aggregation by 50%, rat platelet rich plasma, read-out: IC50 ADPmax): 6.28 µM
IC50 ([2]; inhibits the speed of the platelet aggregation by 50%, rat platelet rich plasma, read-out: IC50 ADPslope): 9.41 µM
Structure (SMILES): C(CSc1nnc(SCCCN2CCOCC2)s1)CN1CCOCC1 [Example 1, 2,5-bis(3-(4-morpholinyl)-propylthio)-1,3,4-thiadiazole]
activity relative to aspirin in the inhibition of ADP induced platelet aggregation ([2]; compared with aspirin, conditions of this test): about twice as active as aspirin

Structure (SMILES): CCN(CC)CCSc1nnc(N)s1 [Example 2, 2-amino-5-(2-(diethylamino)ethylthio)-1,3,4-thiadiazole]
control and killing of tobacco black shank (in words) (tobacco black shank): effective in the control and killing of tobacco black shank
control of the disease (tobacco black shank) (tobacco black shank; solution of 25 ppm): 100%

Structure (SMILES): CCN(CC)CCSc1nnc(SCCN(CC)CC)s1.Cc1ccc(S(=O)(=O)O)cc1.Cc1ccc(S(=O)(=O)O)cc1 [Example 3, 2,5-bis(2-(diethylamino)ethylthio)-1,3,4-thiadiazole di-p-toluenesulfonic acid salt]
mice protected from ADP challenge and able to remain on the screen [3]: 40%
